# Literature values, collected in patent publication US7005448B2, “Aminoalkyl-benzofuran-5-ol compounds for the treatment of glaucoma” (priority 2001, dated 2006).
# Like-named read-outs stand apart in the source and are kept apart here.
# What was measured:
# rabbit eye = details: for intraocular pressure in the anterior chamber of the eye: topically applied to the rabbit eye [Meyer-Bothling et al. 1993]
# 5-HT2A receptor = 5-HT2A receptor (Homo sapiens, UniProt P28223)
# animals = details: in vivo
# [1] = intracamerally [Krootila et al. 1987]
# Sequence of 5-HT2A receptor (P28223 whole entry): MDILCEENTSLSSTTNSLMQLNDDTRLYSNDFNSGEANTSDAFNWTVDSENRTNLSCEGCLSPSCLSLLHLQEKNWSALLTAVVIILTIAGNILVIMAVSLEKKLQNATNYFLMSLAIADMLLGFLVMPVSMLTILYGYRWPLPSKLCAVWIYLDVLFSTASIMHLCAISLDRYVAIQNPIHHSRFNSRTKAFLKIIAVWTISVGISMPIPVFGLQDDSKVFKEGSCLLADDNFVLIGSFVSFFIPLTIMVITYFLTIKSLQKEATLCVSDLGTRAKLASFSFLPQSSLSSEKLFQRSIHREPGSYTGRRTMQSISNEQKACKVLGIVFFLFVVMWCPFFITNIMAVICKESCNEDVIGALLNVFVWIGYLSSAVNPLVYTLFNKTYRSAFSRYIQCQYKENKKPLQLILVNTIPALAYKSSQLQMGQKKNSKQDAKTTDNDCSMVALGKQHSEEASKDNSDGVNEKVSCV
smiles,measurement,setting,value
COc1ccccc1N1CCN(CCCNc2c(C)c(=O)n(C)c(=O)n2C)CC1 [5-methylurapidil],IOP,glaucomatous monkeys,lowered IOP
same,α1 receptor antagonist activity,α1 receptor,relatively potent α1 receptor antagonists
CNCCC(Oc1ccc(C(F)(F)F)cc1)c1ccccc1 (stereo not shown) [fluoxetine],IOP,"human subjects; human subjects, oral administration",raises IOP
"NCCc1c[nH]c2ccc(O)cc12 [Compound 5-HT, 5-hydroxy tryptamine]",IOP,rabbit eye; [1],raised IOP
same,blood-aqueous barrier,rabbit eye; [1],breakdown of the blood-aqueous barrier
same,IOP,rabbit eye; topically applied [Krootila et al. 1987],lowers IOP
same,intraocular pressure in the anterior chamber of the eye,rabbit eye,raise intraocular pressure
"NCCc1c[nH]c2ccc(C(N)=O)cc12 [Compound 5-CT, 5-carboxamidotryptainine]",intraocular pressure in the anterior chamber of the eye,rabbit eye,raise intraocular pressure
COc1cccc(CCc2ccccc2OCC(CN(C)C)OC(=O)CCC(=O)O)c1 (stereo not shown) [Saprogrelate],IOP,"rabbit eye; rabbits, dosed topically or orally",lowers IOP
same,IOP,"human subjects; man, dosed topically or orally",lowers IOP
O=C(c1ccc(F)cc1)C1CCN(CCn2c(=O)[nH]c3ccccc3c2=O)CC1 [Ketanserin],IOP,rabbit eye; rabbits,lowers IOP
same,IOP,human subjects; man,lowers IOP
same,α1 receptor antagonist activity,α1 receptor,significant α1 antagonist activity
c1ccc2c(c1)OC[C@H](CNCCCOc1ccc3c(c1)OCO3)O2 [MKC-242],IOP,rabbit eye; rabbits,lower IOP
same,α1 receptor antagonist activity,α1 receptor,relatively potent α1 receptor antagonists
CC[C@@H](CO)NC(=O)[C@@H]1C=C2c3cccc4c3c(cn4C)C[C@H]2N(C)C1 [Methysergide],IOP,rabbit eye; rabbits,lowered IOP
CCCN(CCC)C1CCc2cccc(O)c2C1 (stereo not shown) [8-hydroxy DPAT],IOP,rabbit eye; rabbits,lower IOP
CC(N)Cc1c2ccoc2c(Br)c2ccoc12 (stereo not shown) [The Nichols compound],affinity for the 5-HT2A receptor,5-HT2A receptor,high affinity
same,generalization to LSD in drug discrimination studies,animals,generalize to LSD
